{
  "source": "patent US10864168B2",
  "about": "“Bioactive delivery vehicles” (The Regents of the University of California, priority 2014, dated 2020)",
  "key": {"[1]": {"system": "inactivated yeast", "experiment": "Encapsulation of bioactives into inactivated yeast cells (conventional diffusion, vacuum infusion, pressure)", "type": "physicochemical, Saccharomyces cerevisiae", "excerpt": "Prior to encapsulation of bioactives, selected strains of both yeast and algal cells are inactivated with a chemical treatment. Chemical inactivation of yeast or algal cells stops the metabolic processes while preserving the structure and chemical composition of the cells. […] The concentration of ethanol is selected based on the results of the previous study. Briefly, 1 gm of yeast or algal cells pellet is suspended in the 35% ethanolic solution of the selected bioactive compound. […] We have determined the % ethanol to achieve sufficient encapsulation of the selected encapsulated bioactive compounds using both the vacuum and high pressure assisted encapsulation process. Yeast or algal cell samples suspended in the ethanolic solution with the bioactive compound are sealed in boilable vacuum bags (Prime Source) at 99% vacuum (Ultravac 250, Koch Equipment LLC). […] The sealed samples are covered with aluminum foil to prevent any photo-degradation of the bioactives and incubated at room temperature (25° C.) for 10 minutes. Samples are emptied into 50 mL centrifuge tubes, centrifuged at 2200 rpm for 10 minutes to pellet the cells and the pelleted cells are washed twice with ethanolic solution (35%) and then five times with excess water to remove unencapsulated bioactives. […] Samples are emptied into 50 mL centrifuge tubes, centrifuged to pellet the cells (2200 rpm for 10 minutes) and the pelleted cells are washed twice with ethanolic solution (35%) and then five times with excess water to remove unencapsulated bioactives. Briefly, yeast or algal samples in a 35% ethanolic solution of the selected bioactive compound are covered with a single layer of aluminum foil to prevent photolysis. Samples are then placed into a rotary incubator at 50° C. and 200 rpm for 24 hours. After removal from the incubator, cells are removed by centrifugation at 2000 rpm for 10 minutes. The supernatant is decanted to isolate the pelleted cells and the pelleted cells are washed as described above to remove unencapsulated bioactives. Cells are sonicated to disrupt the cellular structure. A methanol extraction is utilized to extract the encapsulated bioactives from the disrupted yeast or algal cells. 0.05 g of cells (wet basis) with encapsulated bioactives are sonicated to disrupt cellular structure and subsequently incubated with 1 mL methanol. Samples are then briefly vortexed and centrifuged at 14,000 rpm for 10 minutes. The concentration of bioactive compound dissolved in the organic phase is measured using UV-vis spectrophotometer. […] Measuring loading of these bioactive compounds in various emulsions and nanoparticles has been described. The encapsulation efficiency is determined as follows: [formula] where CE is the mass of extracted bioactive from the cells after encapsulation and CT is the amount of bioactive initially added to the cells. We have developed an innovative bioencapsulation process that provides rapid and efficient infusion of bioactives in isolated cells and lipid bodies. In this process, yeast or algal cells incubated in a solution containing bioactive were subjected to a vacuum (97% vacuum) or mild-high hydrostatic pressure (35-100 MPa) for ˜5-10 minutes. […] The results of these measurements were compared with the conventional process used for encapsulation of bioactive compounds in yeast cells."}, "[2]": {"system": "L. starkeyi (51-55)", "experiment": "Encapsulation of curcumin into cultured yeast, lipogenesis induced or suppressed", "type": "physicochemical, Lipomyces starkeyi", "conditions": "vacuum infused, 35% ethanol", "excerpt": "Increased lipid content both improves the relative encapsulation efficiency of hydrophobic bioactives and the oxidative stability of encapsulated bioactives. In this aim, three strains (Saccharomyces cerevisiae, Candida utilis, Phaffia rhodozyma) of yeast with high and low lipid content (high lipid ascomycete and Saccharomyces cerevisiae (low lipid)) are selected. Similarly, and two strains of algal cells are selected (Chlorella minutissima (UTEX 2341), Chlorella sorokiniana (UTEX 2805). The yeast and algal cells are cultured to achieve varying levels of lipid content by influencing the extracellular nutrients, e.g. in the case of algal cells, deprivation of nitrogen in extracellular media can shift the metabolism to generate lipids, with varying levels of nitrogen, intracellular lipid content is modulated. The intracellular lipids are extracted from freeze dried yeast and algal cells and measured using established gravimetric methods. To induce lipogenesis, 5 mL of the pre-culture are transferred into a 500 mL baffled conical flask with 95 mL of media A (50 g/L glucose, 1.5 g/L yeast extract, 0.5 g/L NH4Cl, 7.0 g/L KH2PO4, 2.5 g/L Na2HPO4.2H2O, 1.5 g/L MgSO4.7H2O, 0.08 g/L FeCl3.6H2O, 10.0 mg/L ZnSO4.7H2O, 0.07 mg/L MnSO4.H2O, 0.1 mg/L CuSO4, 0.063 mg/L Co(NO3)2) and closed with a foam cap. […]"}, "[3]": {"system": "L. casei (S1)", "experiment": "Encapsulation efficiency into bacteria by vacuum infusion", "type": "physicochemical, Lactobacillus casei", "conditions": "vacuum infused, 35% ethanol"}, "[4]": {"system": "porcine mouth mucosa", "experiment": "Curcumin release and diffusion in porcine mouth mucosa from yeast encapsulation system", "method": "Curcumin release and diffusion in porcine mouth mucosa from yeast encapsulation system was evaluated. Yeast microcapsules loaded with curcumin were topically applied on the porcine oral cavity tissue. After incubations for corresponding time periods, curcumin permeation was detected by imaging the tissue cross-sections. Both integrated pixel intensity and penetration distance from skin top surface were calculated. The results are depicted in FIG. 18. […] Furthermore, the yeast carriers can be engineered to act as a programmable microcarrier system that can provide controlled or triggered release of bioactive components in oral mucosa. This engineering can be accomplished by physical, chemical and/or genetic modification of the cell wall and cytoplasmic composition of yeast cells including modification of their lipid content."}},
  "data": [
    {"smiles": "COc1cc(/C=C/C(=O)CC(=O)/C=C/c2ccc(O)c(OC)c2)ccc1O", "note": "[Curcumin, curcumin]", "values": [
      {"measurement": "Mass of Encapsulated Bioactive in Yeast", "setting": "[1]; 100 mM PBS, pH = 6.5, Conventional Diffusion, saturated solution, 35% v/v ethanol", "result": 0.064, "unit": "mg/g"},
      {"measurement": "Mass of Encapsulated Bioactive in Yeast", "setting": "[1]; 100 mM PBS, pH = 6.5, HPP (200 MPa), saturated solution, 35% v/v ethanol", "result": 0.242, "unit": "mg/g"},
      {"measurement": "Mass of Encapsulated Bioactive in Yeast", "setting": "[1]; 100 mM PBS, pH = 6.5, Vacuum Infusion, saturated solution, 35% v/v ethanol", "result": 0.305, "unit": "mg/g"},
      {"measurement": "Mass of Encapsulated Bioactive in Yeast", "setting": "[1]; 2% Tween 20 in 100 mM Tris Buffer, pH = 8, Conventional Diffusion, saturated solution, 35% v/v ethanol", "result": 0.292, "unit": "mg/g"},
      {"measurement": "Mass of Encapsulated Bioactive in Yeast", "setting": "[1]; 2% Tween 20 in 100 mM Tris Buffer, pH = 8, HPP (200 MPa), saturated solution, 35% v/v ethanol", "result": 0.415, "unit": "mg/g"},
      {"measurement": "Mass of Encapsulated Bioactive in Yeast", "setting": "[1]; 2% Tween 20 in 100 mM Tris Buffer, pH = 8, Vacuum Infusion, saturated solution, 35% v/v ethanol", "result": 0.483, "unit": "mg/g"},
      {"measurement": "Mass of Encapsulated Bioactive in Yeast", "setting": "[1]; Commercial Baker's Yeast, vacuum infused, 35% ethanol", "result": 0.392, "unit": "mg/g"},
      {"measurement": "Mass of Encapsulated Bioactive in Yeast", "setting": "[1]; Conventional Diffusion, Single Loading", "result": 0.134, "unit": "mg/g"},
      {"measurement": "Mass of Encapsulated Bioactive in Yeast", "setting": "[1]; S. Cerevisiae (68-115), lipogenesis Induced, vacuum infused, 35% ethanol", "result": 0.260, "unit": "mg/g"},
      {"measurement": "Mass of Encapsulated Bioactive in Yeast", "setting": "[1]; S. Cerevisiae (68-115), lipogenesis Suppressed, vacuum infused, 35% ethanol", "result": 0.238, "unit": "mg/g"},
      {"measurement": "Mass of Encapsulated Bioactive in Yeast", "setting": "[1]; Vacuum, Dual Loading (curcumin and fisetin added together)", "result": 0.442, "unit": "mg/g"},
      {"measurement": "Mass of Encapsulated Bioactive in Yeast", "setting": "[2]; lipogenesis Induced", "result": 0.559, "unit": "mg/g"},
      {"measurement": "Mass of Encapsulated Bioactive in Yeast", "setting": "[2]; lipogenesis Suppressed", "result": 0.466, "unit": "mg/g"},
      {"measurement": "Mass of Encapsulated Bioactive in Bacteria", "setting": "[3]", "result": 1.041, "unit": "mg/g"},
      {"measurement": "integrity of the compound in tissue", "setting": "[4]; after 12 h", "result": "remained intact"},
      {"measurement": "diffusion into mouth mucosa tissue", "setting": "[4]; yeast microcapsules loaded with curcumin, topically applied", "result": "diffused into mouth mucosa tissue with a strong time-dependent manner"}
    ]}
  ]
}
